# Measured values published in patent publication US20230263822A1, “MODULATION OF FACTOR 11 EXPRESSION” (Ionis Pharmaceuticals, Inc., priority 2008, published 2023).
# Strand notation (5' to 3'): a small letter for the sugar, then the base; units joined by * are phosphorothioate-linked, units joined directly phosphodiester-linked; [ ] holds rarer units or linkages, { } end groups; capitals alone tell only the bases. e = 2'-O-(2-methoxyethyl) (MOE); [5mC] = 5-methylcytosine; d = 2'-deoxy (DNA)
# System: human Factor 11 mRNA
# Experiment: Antisense inhibition of human Factor 11 in HepG2 cells by microwalk gapmers, lipofectin, 75 nM (Example 3)
# Assay type: cell-based
# Conditions: HepG2, lipofectin, ~24 h, gapmers targeted to nucleobases 656 to 704 of SEQ ID NO: 1
# In short: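 HepG2 cells (10,000/well) were transfected via lipofectin with 75 nM 20-mer MOE gapmers (phosphorothioate, 5-methyl-C) for about 24 h. Factor 11 mRNA was measured by qRT-PCR, normalized to RIBOGREEN total RNA, and given as percent inhibition versus untreated cells.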
row,Substance,% inhibition [%]
1,416829 (antisense eT*eT*eT*eA*eT*dG*d[5mC]*d[5mC]*d[5mC]*dT*dT*d[5mC]*dA*dT*dG*eT*e[5mC]*eT*eA*eG) [compound 416829],72
2,416948 (antisense eA*eT*dA*dA*dA*dT*dG*dT*d[5mC]*dT*dT*dT*dG*dT*dT*eG*e[5mC]*eA*eA*eG) [compound 416948],62
3,416806 (antisense eA*eA*eA*eT*eG*dT*d[5mC]*dT*dT*dT*dG*dT*dT*dG*d[5mC]*eA*eA*eG*e[5mC]*eG) [compound 416806],86
4,416809 (antisense e[5mC]*eA*eT*eA*eA*dA*dT*dG*dT*d[5mC]*dT*dT*dT*dG*dT*eT*eG*e[5mC]*eA*eA) [compound 416809],86
5,416955 (antisense eG*eG*dT*d[5mC]*d[5mC]*dA*d[5mC]*dA*dT*dA*dA*dA*dT*dG*dT*e[5mC]*eT*eT*eT*eG) [compound 416955],75
6,416954 (antisense eG*eT*d[5mC]*d[5mC]*dA*d[5mC]*dA*dT*dA*dA*dA*dT*dG*dT*d[5mC]*eT*eT*eT*eG*eT) [compound 416954],61
7,416816 (antisense e[5mC]*eT*eA*eG*eG*dT*d[5mC]*d[5mC]*dA*d[5mC]*dA*dT*dA*dA*dA*eT*eG*eT*e[5mC]*eT) [compound 416816],79
8,416872 (antisense e[5mC]*eA*eT*dA*dA*dA*dT*dG*dT*d[5mC]*dT*dT*dT*dG*dT*dT*dG*e[5mC]*eA*eA) [compound 416872],20
9,416871 (antisense eA*eT*eA*dA*dA*dT*dG*dT*d[5mC]*dT*dT*dT*dG*dT*dT*dG*d[5mC]*eA*eA*eG) [compound 416871],28
10,416962 (antisense eA*eT*dG*dT*d[5mC]*dT*dA*dG*dG*dT*d[5mC]*d[5mC]*dA*d[5mC]*dA*eT*eA*eA*eA*eT) [compound 416962],77
11,416880 (antisense eT*eA*eG*dG*dT*d[5mC]*d[5mC]*dA*d[5mC]*dA*dT*dA*dA*dA*dT*dG*dT*e[5mC]*eT*eT) [compound 416880],66
12,416894 (antisense eA*eT*eG*d[5mC]*d[5mC]*d[5mC]*dT*dT*d[5mC]*dA*dT*dG*dT*d[5mC]*dT*dA*dG*eG*eT*e[5mC]) [compound 416894],85
13,416869 (antisense eA*eA*eA*dT*dG*dT*d[5mC]*dT*dT*dT*dG*dT*dT*dG*d[5mC]*dA*dA*eG*e[5mC]*eG) [compound 416869],81
14,416891 (antisense e[5mC]*e[5mC]*e[5mC]*dT*dT*d[5mC]*dA*dT*dG*dT*d[5mC]*dT*dA*dG*dG*dT*d[5mC]*e[5mC]*eA*e[5mC]) [compound 416891],81
15,416951 (antisense e[5mC]*eA*d[5mC]*dA*dT*dA*dA*dA*dT*dG*dT*d[5mC]*dT*dT*dT*eG*eT*eT*eG*e[5mC]) [compound 416951],48
16,416808 (antisense eA*eT*eA*eA*eA*dT*dG*dT*d[5mC]*dT*dT*dT*dG*dT*dT*eG*e[5mC]*eA*eA*eG) [compound 416808],55
17,416828 (antisense eT*eT*eA*eT*eG*d[5mC]*d[5mC]*d[5mC]*dT*dT*d[5mC]*dA*dT*dG*dT*e[5mC]*eT*eA*eG*eG) [compound 416828],87

# Same assay, conditions: HepG2 cells, lipofectin, gapmers targeted to nucleobases 738 to 762 of SEQ ID NO: 1
row,Substance,% inhibition [%]
1,416977 (antisense eA*eT*d[5mC]*d[5mC]*dG*dT*dG*d[5mC]*dA*dT*d[5mC]*dT*dT*dT*d[5mC]*eT*eT*eG*eG*e[5mC]) [compound 416977],82
2,416901 (antisense e[5mC]*eA*eT*d[5mC]*d[5mC]*dG*dT*dG*d[5mC]*dA*dT*d[5mC]*dT*dT*dT*d[5mC]*dT*eT*eG*eG) [compound 416901],65
3,416902 (antisense eT*e[5mC]*eA*dT*d[5mC]*d[5mC]*dG*dT*dG*d[5mC]*dA*dT*d[5mC]*dT*dT*dT*d[5mC]*eT*eT*eG) [compound 416902],46
4,416900 (antisense eA*eT*e[5mC]*d[5mC]*dG*dT*dG*d[5mC]*dA*dT*d[5mC]*dT*dT*dT*d[5mC]*dT*dT*eG*eG*e[5mC]) [compound 416900],90
5,416830 (antisense eT*e[5mC]*e[5mC]*eG*eT*dG*d[5mC]*dA*dT*d[5mC]*dT*dT*dT*d[5mC]*dT*eT*eG*eG*e[5mC]*eA) [compound 416830],81
6,416832 (antisense e[5mC]*eA*eT*e[5mC]*e[5mC]*dG*dT*dG*d[5mC]*dA*dT*d[5mC]*dT*dT*dT*e[5mC]*eT*eT*eG*eG) [compound 416832],79
7,416899 (antisense eT*e[5mC]*e[5mC]*dG*dT*dG*d[5mC]*dA*dT*d[5mC]*dT*dT*dT*d[5mC]*dT*dT*dG*eG*e[5mC]*eA) [compound 416899],86
8,416975 (antisense e[5mC]*e[5mC]*dG*dT*dG*d[5mC]*dA*dT*d[5mC]*dT*dT*dT*d[5mC]*dT*dT*eG*eG*e[5mC]*eA*eT) [compound 416975],87
9,416831 (antisense eA*eT*e[5mC]*e[5mC]*eG*dT*dG*d[5mC]*dA*dT*d[5mC]*dT*dT*dT*d[5mC]*eT*eT*eG*eG*e[5mC]) [compound 416831],91
10,416903 (antisense eG*eT*e[5mC]*dA*dT*d[5mC]*d[5mC]*dG*dT*dG*d[5mC]*dA*dT*d[5mC]*dT*dT*dT*e[5mC]*eT*eT) [compound 416903],88

# Same assay, conditions: HepG2 cells, lipofectin, gapmers targeted to nucleobases 1018 to 1042 of SEQ ID NO: 1
row,Substance,% inhibition [%]
1,416907 (antisense e[5mC]*eA*eA*d[5mC]*d[5mC]*dG*dG*dG*dA*dT*dG*dA*dT*dG*dA*dG*dT*eG*e[5mC]*eA) [compound 416907],90
2,416906 (antisense eA*eA*e[5mC]*d[5mC]*dG*dG*dG*dA*dT*dG*dA*dT*dG*dA*dG*dT*dG*e[5mC]*eA*eG) [compound 416906],88
3,416905 (antisense eA*e[5mC]*e[5mC]*dG*dG*dG*dA*dT*dG*dA*dT*dG*dA*dG*dT*dG*d[5mC]*eA*eG*eA) [compound 416905],85

# Same assay, conditions: HepG2 cells, lipofectin, gapmers targeted to nucleobases 1062 to 1091 of SEQ ID NO: 1
row,Substance,% inhibition [%]
1,416843 (antisense eT*eT*eT*eG*eA*dG*dA*dT*dT*d[5mC]*dT*dT*dT*dG*dG*eG*e[5mC]*e[5mC]*eA*eT) [compound 416843],89
2,416912 (antisense eG*eA*eG*dA*dT*dT*d[5mC]*dT*dT*dT*dG*dG*dG*d[5mC]*d[5mC]*dA*dT*eT*e[5mC]*e[5mC]) [compound 416912],92
3,416919 (antisense eT*eT*eT*d[5mC]*dT*dT*dT*dG*dA*dG*dA*dT*dT*d[5mC]*dT*dT*dT*eG*eG*eG) [compound 416919],27
4,416909 (antisense eA*eT*eT*d[5mC]*dT*dT*dT*dG*dG*dG*d[5mC]*d[5mC]*dA*dT*dT*d[5mC]*d[5mC]*eT*eG*eG) [compound 416909],78
5,416991 (antisense eT*eT*dG*dA*dG*dA*dT*dT*d[5mC]*dT*dT*dT*dG*dG*dG*e[5mC]*e[5mC]*eA*eT*eT) [compound 416991],87
6,416986 (antisense eA*eT*dT*d[5mC]*dT*dT*dT*dG*dG*dG*d[5mC]*d[5mC]*dA*dT*dT*e[5mC]*e[5mC]*eT*eG*eG) [compound 416986],88
7,416988 (antisense eA*eG*dA*dT*dT*d[5mC]*dT*dT*dT*dG*dG*dG*d[5mC]*d[5mC]*dA*eT*eT*e[5mC]*e[5mC]*eT) [compound 416988],76
8,416918 (antisense eT*eT*e[5mC]*dT*dT*dT*dG*dA*dG*dA*dT*dT*d[5mC]*dT*dT*dT*dG*eG*eG*e[5mC]) [compound 416918],63

# Same assay, conditions: HepG2 cells, lipofectin, gapmers targeted to nucleobases 1275 to 1318 of SEQ ID NO: 1
row,Substance,% inhibition [%]
1,416997 (antisense eA*e[5mC]*dA*dG*dT*dT*dT*d[5mC]*dT*dG*dG*d[5mC]*dA*dG*dG*e[5mC]*e[5mC]*eT*e[5mC]*eG) [compound 416997],84
2,416998 (antisense e[5mC]*eA*d[5mC]*dA*dG*dT*dT*dT*d[5mC]*dT*dG*dG*d[5mC]*dA*dG*eG*e[5mC]*e[5mC]*eT*e[5mC]) [compound 416998],88
3,416921 (antisense e[5mC]*eA*e[5mC]*dA*dG*dT*dT*dT*d[5mC]*dT*dG*dG*d[5mC]*dA*dG*dG*d[5mC]*e[5mC]*eT*e[5mC]) [compound 416921],88
4,416935 (antisense eG*eG*eA*d[5mC]*dG*dG*d[5mC]*dA*dT*dT*dG*dG*dT*dG*d[5mC]*dA*d[5mC]*eA*eG*eT) [compound 416935],92
5,416942 (antisense eT*eG*eG*d[5mC]*dA*dG*d[5mC]*dG*dG*dA*d[5mC]*dG*dG*d[5mC]*dA*dT*dT*eG*eG*eT) [compound 416942],85
6,417015 (antisense eA*eG*d[5mC]*dG*dG*dA*d[5mC]*dG*dG*d[5mC]*dA*dT*dT*dG*dG*eT*eG*e[5mC]*eA*e[5mC]) [compound 417015],87
7,416938 (antisense eA*eG*e[5mC]*dG*dG*dA*d[5mC]*dG*dG*d[5mC]*dA*dT*dT*dG*dG*dT*dG*e[5mC]*eA*e[5mC]) [compound 416938],90
8,416943 (antisense e[5mC]*eT*eG*dG*d[5mC]*dA*dG*d[5mC]*dG*dG*dA*d[5mC]*dG*dG*d[5mC]*dA*dT*eT*eG*eG) [compound 416943],92
9,416932 (antisense e[5mC]*eG*eG*d[5mC]*dA*dT*dT*dG*dG*dT*dG*d[5mC]*dA*d[5mC]*dA*dG*dT*eT*eT*e[5mC]) [compound 416932],92
